One data set concerns the target T1, human NHE-1 (Homo sapiens, UniProt P19634).
T1 construct: expressed in transfected cells; host or cells: LAP-1 (parental line without endogenous NHE activity), G418 selection
The data set can be described thus: NHE-1 inhibition, FLIPR assay measuring pHi recovery in transfected cell lines. The data set is classed as cell-based. The note with it: transfected LAP-1 cell line expressing human NHE-1, BCECF pHi recovery, read-out: NHE1 inhibition IC50. The method, then:
The inhibitory concentration IC50 for NHE-1 inhibition was determined as follows:
IC50 for NHE-1 inhibition was determined in an FLIPR assay by measurement of the pHi recovery in transfected cell lines which express human NHE-1.
The assay was carried out in an FLIPR (fluorometric imaging plate reader) with black-walled 96-well microtiter plates with clear bases.
The growth medium for the transfected cells (Iscove+10% fetal calf serum) additionally contained G418 as selection antibiotic in order to ensure the presence of the transfected sequences.
The actual assay started with the removal of the growth medium and addition of 100 μl of loading buffer per well (5 μM BCECF-AM [2′,7′-bis(carboxyethyl)-5-(and -6-)carboxyfluorescein, acetoxymethyl ester] in 20 mM NH4Cl, 115 mM choline chloride, 1 mM MgCl2, 1 mM CaCl2, 5 mM KCl, 20 mM HEPES, 5 mM glucose; pH 7.4 [adjusted with KOH]). The cells were then incubated at 37° C. for 20 minutes. This incubation led to loading of the cells with the fluorescent dye whose fluorescence intensity depends on pHi, and with NH4Cl that made the cells slightly alkaline.
The nonfluorescent dye precursor BCECF-AM is, as ester, membrane-permeable. The actual dye BCECF is not membrane-permeable but is liberated inside cells by esterases. […]

Data set [1] in a line: In vivo pharmacokinetics, profiling with the "n in one method" in beagle dog. The note with it: for Volume of distribution: fasting male beagle dog, single i.v. bolus into jugular vein, about 1 mg/kg, both substances given together. The protocol:
In vivo pharmacokinetics—profiling with the “n in one method”
The exposure data and the volumes of distribution were determined as characteristic pharmacokinetic data as follows:
The NHE-1 inhibitor of example 1 of the invention and, as reference substance, the known NHE-1 inhibitor cariporide with formula
[drawing 23] were dissolved in an aqueous, slightly acidic medium (water, pH 4, adjusted with 1M hydrochloric acid). The concentration of the aqueous formulation prepared in this way was about 1.5 mg of each substance per 1 g of solution. 10 ml of this formulation were administered as a single bolus by catheter into the jugular vein of a fasting male beagle dog (dose about 1 mg of each substance administered per kg of the dog's body weight). Blood samples were taken by means of a second catheter after 5 min, 15 min, 30 min, 1 h, 2 h, 4 h, 8 h and 24 h, and heparinized plasma was prepared by centrifugation at 1000 G in appropriate plasma tubes.
The plasma samples were worked up and, after an HPLC separation, quantified by MS/MS. The high specificity of this method permitted simultaneous determination of a plurality of substances. The exposures could be calculated using the WinNonlin computer program from the concentration-time plots (see FIG. 1) and compared with the exposure of the known NHE-1 reference substance. Since the various substances were measured in the same animal at the same time, the result was an accurate comparison of the compounds, and a ranking of the volumes of distribution was possible.
FIG. 1: concentration-time plots in the blood plasma of dogs after administration of in each case approx. 1 mg/kg of the compound of example 1 and of cariporide.

From US7622611B2, “Pentafluorosulfanylbenzoylguanidines, process for their preparation, use as a medicament or diagnostic aid, and medicament comprising same” (Sanofi-Aventis Deutschland GmbH, priority 2003, dated 2009) come the findings set out here.

SMILES strings stand for the structures. pIC50: −log10 of the molar value.

T1 sequence (P19634 whole entry): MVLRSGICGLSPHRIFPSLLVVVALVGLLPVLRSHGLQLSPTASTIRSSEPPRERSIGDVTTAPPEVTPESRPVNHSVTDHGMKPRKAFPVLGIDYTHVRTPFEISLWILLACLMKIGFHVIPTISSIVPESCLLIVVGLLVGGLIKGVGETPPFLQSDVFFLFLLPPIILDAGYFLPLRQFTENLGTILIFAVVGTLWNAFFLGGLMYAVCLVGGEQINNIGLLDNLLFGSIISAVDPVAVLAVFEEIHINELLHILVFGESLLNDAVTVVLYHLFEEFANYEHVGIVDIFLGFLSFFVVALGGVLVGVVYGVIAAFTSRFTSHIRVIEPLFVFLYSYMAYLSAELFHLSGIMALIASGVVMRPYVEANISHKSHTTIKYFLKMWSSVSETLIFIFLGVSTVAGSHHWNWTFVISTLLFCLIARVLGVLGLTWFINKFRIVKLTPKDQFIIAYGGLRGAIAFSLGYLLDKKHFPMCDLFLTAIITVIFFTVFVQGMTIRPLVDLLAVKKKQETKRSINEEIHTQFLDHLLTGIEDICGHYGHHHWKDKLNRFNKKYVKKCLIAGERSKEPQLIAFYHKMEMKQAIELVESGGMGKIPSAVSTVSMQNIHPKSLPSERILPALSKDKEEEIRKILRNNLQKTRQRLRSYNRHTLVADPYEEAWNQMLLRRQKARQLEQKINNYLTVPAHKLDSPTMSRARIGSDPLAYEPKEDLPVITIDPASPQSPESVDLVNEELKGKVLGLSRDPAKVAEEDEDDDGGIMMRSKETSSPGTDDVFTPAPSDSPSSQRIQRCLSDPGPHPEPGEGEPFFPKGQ

`Cc1cc(S(F)(F)(F)(F)F)c(S(C)(=O)=O)cc1C(=O)N=C(N)N` [Example 1, N-(5-Methanesulfonyl-2-methyl-4-pentafluorosulfanylbenzoyl)guanidine]: the melting point lay in the range of 254 to 256 °C. Further, the pIC50 on human NHE-1 is 7.31. In data set [1] (dog plasma, about 1 mg/kg i.v., from concentration-time plots, FIG. 1), the “Exposure relative to reference substance cariporide (times higher)” value is given as 2-3 times. Also, the Volume of distribution in data set [1] is recorded as 1.67 l/kg of body weight.

For `CC(C)c1ccc(C(=O)N=C(N)N)cc1S(C)(=O)=O.CS(=O)(=O)O` [cariporide, reference compound], in data set [1] (dog plasma, 24 h after about 1 mg/kg i.v.), the “Detectability in plasma after 24 hours” value is “no longer detectable”. Also, the Volume of distribution in data set [1] is given as 2.94 l/kg of body weight.

A word on the pIC50: it is −log10 of the IC50, conventionally taken in molar units. One may read the melting point as the temperature of the solid-liquid transition.
